Measurements taken from US20260191856A1 (priority 2022, published 2026).
Values joined by “and” are separate entries in the source; they are usually repeats but may differ in a detail not shown here. Identical values can stand only once. “Also recorded” adds a separate entry of the source. Marks after values point to notes of the source that are not given here.

What was measured:
[1] = male, C57BL/6J, mouse, in vivo, iv, 10 mg/kg
male C57BL/6J mice [2] = experiment: Naloxone-precipitated opioid withdrawal assay
MOR [3] = molecular target: T1, MOR (Homo sapiens, UniProt P35372); type: cell-based
T1 construct: expressed in transfected cells; host or cells: HEK293T
T1 sequence (P35372 whole entry): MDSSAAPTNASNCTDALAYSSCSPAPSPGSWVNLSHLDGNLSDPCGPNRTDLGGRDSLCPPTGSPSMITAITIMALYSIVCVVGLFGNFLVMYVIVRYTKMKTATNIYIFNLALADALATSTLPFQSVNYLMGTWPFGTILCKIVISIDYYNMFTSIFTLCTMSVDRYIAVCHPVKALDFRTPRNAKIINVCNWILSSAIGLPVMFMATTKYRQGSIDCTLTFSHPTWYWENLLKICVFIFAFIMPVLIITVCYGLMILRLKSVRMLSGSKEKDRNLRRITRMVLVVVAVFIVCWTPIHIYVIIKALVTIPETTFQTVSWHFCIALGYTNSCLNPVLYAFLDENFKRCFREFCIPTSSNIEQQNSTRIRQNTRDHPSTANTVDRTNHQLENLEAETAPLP

MOR [4] = molecular target: T1, MOR; experiment: TRUPATH subtype selectivity, MOR/DAMGO; type: cell-based; settings: compound A3 up to 30 μM
in vivo = settings: male, C57BL/6J, mouse, iv, 10 mg/kg
male C57BL/6J mice [5] = experiment: Conditioned place preference (CPP) assay; type: in vivo, mouse; settings: compound A3 100 mg/kg sc (−30 min) + naloxone 0.1 mg/kg s.c.
δOR = molecular target: T2, δOR (Homo sapiens, UniProt P41143); experiment: TRUPATH subtype selectivity, δOR/DPDPE; type: cell-based; settings: compound A3 up to 30 μM
T2 construct: expressed in transfected cells; host or cells: HEK293T (method is written for MOR)
T2 sequence (P41143 whole entry): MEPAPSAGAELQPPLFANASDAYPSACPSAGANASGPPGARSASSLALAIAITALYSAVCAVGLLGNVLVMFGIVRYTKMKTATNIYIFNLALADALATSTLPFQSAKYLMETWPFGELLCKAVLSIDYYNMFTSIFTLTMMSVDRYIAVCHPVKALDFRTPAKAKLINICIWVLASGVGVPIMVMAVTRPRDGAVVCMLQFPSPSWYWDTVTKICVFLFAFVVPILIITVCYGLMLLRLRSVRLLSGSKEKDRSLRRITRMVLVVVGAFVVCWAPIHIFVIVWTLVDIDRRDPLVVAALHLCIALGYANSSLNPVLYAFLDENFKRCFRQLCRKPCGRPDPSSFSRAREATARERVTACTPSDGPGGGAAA

MOR [6] = molecular target: T3, MOR (Mus musculus, UniProt P42866); type: biochemical; set-up: FLAG (N); hexa-histidine (C); made in house; host or cells: Spodoptera frugiperda (Sf9) for MOR; Trichoplusia ni for Gi
T3 sequence (P42866 whole entry): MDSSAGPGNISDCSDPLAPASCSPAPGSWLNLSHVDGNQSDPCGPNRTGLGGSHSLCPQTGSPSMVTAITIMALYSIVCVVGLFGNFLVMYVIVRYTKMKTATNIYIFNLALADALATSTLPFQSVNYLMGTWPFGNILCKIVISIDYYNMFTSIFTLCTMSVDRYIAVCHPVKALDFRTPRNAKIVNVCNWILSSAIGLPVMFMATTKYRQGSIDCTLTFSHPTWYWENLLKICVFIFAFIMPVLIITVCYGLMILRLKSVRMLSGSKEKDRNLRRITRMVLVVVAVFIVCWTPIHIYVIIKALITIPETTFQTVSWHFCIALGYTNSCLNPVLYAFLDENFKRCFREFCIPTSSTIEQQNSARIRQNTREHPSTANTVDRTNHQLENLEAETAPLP

MOR [7] = molecular target: T1, MOR; type: cell-based; remark: listed apart in the source
κOR = molecular target: T4, κOR (Homo sapiens, UniProt P41145); experiment: TRUPATH subtype selectivity, κOR/U50488; type: cell-based; settings: compound A3 up to 30 μM
T4 construct: expressed in transfected cells; host or cells: HEK293T (method is written for MOR)
T4 sequence (P41145 whole entry): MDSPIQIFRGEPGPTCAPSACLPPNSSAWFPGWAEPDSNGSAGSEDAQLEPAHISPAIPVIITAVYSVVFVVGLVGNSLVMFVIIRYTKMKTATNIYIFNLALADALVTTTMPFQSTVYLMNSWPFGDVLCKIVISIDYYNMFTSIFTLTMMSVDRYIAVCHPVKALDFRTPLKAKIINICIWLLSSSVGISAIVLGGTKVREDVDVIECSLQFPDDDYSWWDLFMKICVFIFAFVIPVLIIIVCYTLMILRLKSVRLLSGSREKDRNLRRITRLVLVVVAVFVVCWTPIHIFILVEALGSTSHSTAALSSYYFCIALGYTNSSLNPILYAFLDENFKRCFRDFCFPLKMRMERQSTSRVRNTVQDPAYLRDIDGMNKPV

male C57BL/6J mice [8] = settings: mouse, in vivo
male C57BL/6J mice [9] = experiment: Locomotor and respiration effects (CLAMS)
MOR [10] = molecular target: T3, MOR; experiment: biochemical; type: binding; set-up: made in house; host or cells: Sf9 insect cell membranes (baculovirus)
[11] = Condition 4 morphine + compound A3 (100 mg/kg) + low NAL (0.1 mg/kg)
[12] = compound A3 1-100 mg/kg + naloxone 0.1 mg/kg, maximal at 100 mg/kg

CNC(=O)C(Cc1ccc(C)c(OC)c1)NC(=O)CSc1ccc2ccccc2c1-c1cncc(OCc2ccccc2)c1 (racemic) [Compound A3, 2-(2-((1-(5-(benzyloxy)pyridin-3-yl)naphthalen-2-yl)thio)acetamido)-3-(3-methoxy-4-methylphenyl)-N-methylpropanamide]
brain penetration [1]: ~ 25 % of maximum plasma levels
Forepaw Licking Frequency, Avg (male C57BL/6J mice [2]; [11]): 0.6
Forepaw Tremor, Avg (male C57BL/6J mice [2]; [11]): 1.6
Rearing Frequency, Avg (male C57BL/6J mice [2]; [11]): 1.6*
Straightening, Avg (male C57BL/6J mice [2]; [11]): 0.2
Wet Dog shakes, Avg (male C57BL/6J mice [2]; [11]): 1.1
magnitude of naloxone-precipitated withdrawal, combined low-dose naloxone/NAM treatment (male C57BL/6J mice [2]; compound A3 100 mg/kg s.c. + naloxone 0.1 mg/kg s.c., morphine-dependent mice): did not potentiate the magnitude of withdrawal caused by a low-dose of naloxone alone to the same levels of withdrawal symptoms as the conventional naloxone treatment
inhibition across Gi/o subtypes (MOR [3]): all Ci/o subtypes were inhibited nearly equally
right-shift in DAMGO potency at the MOR (MOR [4]): 3.7 fold
half-life (in vivo): 44.4 min
morphine CPP after compound A3 and low-dose naloxone (male C57BL/6J mice [5]): morphine CPP was eliminated
right-shift in DPDPE potency at δOR (δOR): caused a right-shift in DPDPE potency at SOR, though to a lesser extent
GTP turnover in the absence of orthosteric ligand (MOR [6]): inhibits turnover of the receptor in the absence of orthosteric ligand; also recorded: inhibited receptor-catalyzed GTP turnover in the absence of orthosteric ligands
effect on met-enkephalin induced activation of G protein (GTP turnover) (MOR [6]): significantly inhibits met-enkephalin induced activation of Gi; also recorded: inhibited MOR/met-enkephalin induced activation of Gl
efficacy of modulation of met-enkephalin-induced GTP turnover (MOR [6]): inhibiting GTP depletion to nearly the same levels as those observed for G in the absence of any receptor catalyst; also recorded: nearly eliminating receptor induced GTP turnover
potency in GTP turnover assay (MOR [6]): single-digit μM range
potency of A3 at inhibiting relative to A1 at enhancing MOR/met-enkephalin induced activation of G (MOR [6]): > 10 fold
enhancement of observed potency of naloxone for inhibiting agonist-induced signaling (MOR [7]): 7.6
effect at κOR activation by U50,488 (κOR): No effect is observed at KOR activation by U50,488
impact on morphine-induced antinociception, compound alone (male C57BL/6J mice [8]): no significant impact on morphine-induced antinociception
inhibition of morphine-induced antinociception in the presence of low-dose naloxone (male C57BL/6J mice [8]): significantly inhibits morphine-induced antinociception in a dose-dependent manner
median dose to potentiate low-dose naloxone antagonism of morphine antinociception (male C57BL/6J mice [8]): 1.15 (0.03-4.04) mg/kg, s.c.
enhancement of low-dose naloxone inhibition of morphine-induced hyperlocomotion (male C57BL/6J mice [9]; [12]): significantly enhances low-dose naloxone inhibition of hyperlocomotion
enhancement of low-dose naloxone inhibition of morphine-induced respiratory depression (male C57BL/6J mice [9]; [12]): significantly enhances low-dose naloxone inhibition
ambulation or breathing rate, compound itself (male C57BL/6J mice [9]; compound A3 alone, relative to vehicle): does not change ambulation or breathing rate relative to vehicle administration
EC50 (MOR [10]; EC50 of increased binding of 3H-naloxone, MOR-expressing membranes): 130 nM and 133 nM
increase in 3H-naloxone affinity (MOR [10]; in the presence of excess A3): ~ 2.6 fold and 2.6 fold
enhancement of observed on-rate of 3H-naloxone (MOR [10]; orthosteric site saturated with mitragynine pseudoindoxyl): > 10 fold
